Experimental data from PubChem BioAssay (NCI).
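Compound exposure: 48 hours, 5 concentrations, 96-well plates. Definition used: TGI = concentration required for complete inhibition of growth.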

What was measured:
Experiment in all cases: inhibition of tumour cell growth, NCI panel, 48 h
T-47D breast = system: T-47D breast
UACC-62 melanoma = system: UACC-62 melanoma
SNB-75 CNS = system: SNB-75 CNS
OVCAR-5 ovarian = system: OVCAR-5 ovarian
HS 578T breast = system: HS 578T breast
HT29 colon = system: HT29 colon
A549 NSCLC = system: A549 NSCLC
HCT-116 colon = system: HCT-116 colon
MDA-MB-435 = system: MDA-MB-435
DU-145 prostate = system: DU-145 prostate
SN12C renal = system: SN12C renal
ACHN renal = system: ACHN renal
RXF 393 renal = system: RXF 393 renal
OVCAR-8 ovarian = system: OVCAR-8 ovarian
SK-MEL-28 melanoma = system: SK-MEL-28 melanoma
LOX IMVI melanoma = system: LOX IMVI melanoma
COLO 205 colon = system: COLO 205 colon
HCT-15 colon = system: HCT-15 colon
SR leukemia = system: SR leukemia
NCI-H226 lung = system: NCI-H226 lung
SF-268 CNS = system: SF-268 CNS
UACC-257 melanoma = system: UACC-257 melanoma
HCC-2998 colon = system: HCC-2998 colon
U251 CNS = system: U251 CNS
CAKI-1 renal = system: CAKI-1 renal
MDA-MB-231 breast = system: MDA-MB-231 breast
SK-MEL-5 melanoma = system: SK-MEL-5 melanoma
SW-620 colon = system: SW-620 colon
NCI-H23 lung = system: NCI-H23 lung
M14 melanoma = system: M14 melanoma
HL-60(TB) leukemia = system: HL-60(TB) leukemia
SF-295 CNS = system: SF-295 CNS
CCRF-CEM leukemia = system: CCRF-CEM leukemia
K-562 leukemia = system: K-562 leukemia
SK-OV-3 ovarian = system: SK-OV-3 ovarian
SK-MEL-2 melanoma = system: SK-MEL-2 melanoma
PC-3 prostate = system: PC-3 prostate
KM12 colon = system: KM12 colon
MALME-3M melanoma = system: MALME-3M melanoma
MDA-N = system: MDA-N
IGROV1 ovarian = system: IGROV1 ovarian
BT-549 breast = system: BT-549 breast
NCI-H522 lung = system: NCI-H522 lung
RPMI-8226 leukemia = system: RPMI-8226 leukemia
OVCAR-3 ovarian = system: OVCAR-3 ovarian
MOLT-4 leukemia = system: MOLT-4 leukemia
UO-31 renal = system: UO-31 renal
NCI/ADR-RES ovarian = system: NCI/ADR-RES ovarian
SF-539 CNS = system: SF-539 CNS
EKVX NSCLC = system: EKVX NSCLC
OVCAR-4 ovarian = system: OVCAR-4 ovarian
MCF7 breast = system: MCF7 breast
SNB-19 CNS = system: SNB-19 CNS
TK-10 renal = system: TK-10 renal
HOP-62 NSCLC = system: HOP-62 NSCLC
786-0 renal = system: 786-0 renal
HOP-92 NSCLC = system: HOP-92 NSCLC

Measured: TGI

Cc1cc2ncn(C3CCCO3)c2cc1C (configuration not stated)
> 100 µM: T-47D breast | UACC-62 melanoma | SNB-75 CNS | OVCAR-5 ovarian | HS 578T breast | HT29 colon | A549 NSCLC | HCT-116 colon | MDA-MB-435 | DU-145 prostate | SN12C renal | ACHN renal | RXF 393 renal | OVCAR-8 ovarian | SK-MEL-28 melanoma | LOX IMVI melanoma | COLO 205 colon | HCT-15 colon | SR leukemia | NCI-H226 lung | SF-268 CNS | UACC-257 melanoma | HCC-2998 colon | U251 CNS | CAKI-1 renal | MDA-MB-231 breast | SK-MEL-5 melanoma | SW-620 colon | NCI-H23 lung | M14 melanoma | HL-60(TB) leukemia | SF-295 CNS | CCRF-CEM leukemia | K-562 leukemia | SK-OV-3 ovarian | SK-MEL-2 melanoma | PC-3 prostate | KM12 colon | MALME-3M melanoma | MDA-N | IGROV1 ovarian | BT-549 breast | NCI-H522 lung | RPMI-8226 leukemia | OVCAR-3 ovarian | MOLT-4 leukemia | UO-31 renal | NCI/ADR-RES ovarian | SF-539 CNS | EKVX NSCLC | OVCAR-4 ovarian | MCF7 breast | SNB-19 CNS | TK-10 renal | HOP-62 NSCLC | 786-0 renal | HOP-92 NSCLC
